Experimental findings from ChEMBL document CHEMBL1149295, “A combined QM/MM approach to protein--ligand interactions: polarization effects of the HIV-1 protease on selected high affinity inhibitors” (J Med Chem, 2004) are described below.

A short description of the assay: Inhibition of HIV1 protease. Also noted: species or system Human immunodeficiency virus 1.

The Ki is a dissociation constant, usually derived from enzyme kinetics or from competition with a known ligand. High values mean a looser hold on the target, low ones a stronger hold on the target.

Regarding `CCC[C@@]1(CCc2ccccc2)CC(O)=C([C@H](CC)c2cccc(NS(=O)(=O)c3ccc(C(F)(F)F)cn3)c2)C(=O)O1` [TIPRANAVIR], the Ki stood at 0.008 nM.
`Cc1c(O)cccc1C(=O)N[C@@H](CSc1ccccc1)[C@H](O)CN1C[C@H]2CCCC[C@H]2C[C@H]1C(=O)NC(C)(C)C` [NELFINAVIR] returned a Ki of 0.28 nM.
`Nc1cccc(CN2C(=O)N(Cc3cccc(N)c3)[C@H](Cc3ccccc3)[C@H](O)[C@@H](O)[C@H]2Cc2ccccc2)c1` [MOZENAVIR] gave a Ki of 0.41 nM.
